Laboratory results published in ChEMBL document CHEMBL5214964 (Bioorg Med Chem Lett, 2022).

What was measured:
in vivo [1] = conditions: rat, plasma, ip, 20 mg/kg
in vivo [2] = conditions: rat, plasma, ip, 20 mg/kg; remark: listed apart in the source
in vivo [3] = conditions: rat, plasma, ip, 20 mg/kg; remark: listed apart in the source
in vivo [4] = conditions: rat, synovial fluid, ip, 20 mg/kg

In the case of `NCCNS(=O)(=O)c1ccc(-c2ccc(CSc3nc4c(c(=O)[nH]3)CCC4)cc2)cc1`, the concentration at 1 h (in vivo [1]) is reported as 115 µM, the concentration at 2 h (in vivo [2]) is reported as 85 µM and the concentration at 4 h (in vivo [3]) is reported as 57 µM. The concentration at 4 h (in vivo [4]) was 3.27 µM.
